TGI data for seven molecules are collected here from PubChem BioAssay (NCI).

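Protocol summary: plate cells (96-well), add compound at 5 concentrations, incubate 48 h, interpolate endpoints linearly. At the TGI there is no net growth.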

Some test systems named below: CAKI-1 renal; CCRF-CEM leukemia; HCT-116 colon; HL-60(TB) leukemia; HOP-62 NSCLC; IGROV1 ovarian; KM12 colon; LOX IMVI melanoma; MDA-MB-231 breast; MDA-MB-435; MOLT-4 leukemia; NCI-H23 lung; NCI-H522 lung; OVCAR-3 ovarian; SF-268 CNS; SF-295 CNS; SF-539 CNS; SK-MEL-2 melanoma; SN12C renal.
Holding throughout (assay): NCI anticancer screen, dose series, 48 h

As to `CC(NC(=O)OCc1ccccc1)NC(=O)OC(C)(C)C` (stereo not drawn), the TGI in the experiment with CAKI-1 renal, in the experiment with CCRF-CEM leukemia, in the experiment on HCT-116 colon, in the experiment on HL-60(TB) leukemia, in the experiment on HOP-62 NSCLC and in the experiment on IGROV1 ovarian was over 100 µM throughout. Further, the TGI in the experiment on KM12 colon, with LOX IMVI melanoma, in the experiment with MDA-MB-231 breast, with MDA-MB-435, with MOLT-4 leukemia and with NCI-H23 lung was over 100 µM each time. Besides, the TGI with NCI-H522 lung, with OVCAR-3 ovarian, in the experiment on SF-268 CNS, with SF-295 CNS, with SF-539 CNS and in the experiment with SK-MEL-2 melanoma was over 100 µM each time. This molecule also displayed a TGI in the experiment on SN12C renal of over 100 µM.

As for `CC(=O)C(C(=O)c1ccc(C)cc1)[C@@H]1OC(C)(C)O[C@@H]1[C@H]1COC(C)(C)O1` (stereo partly drawn), the TGI in the experiment with CAKI-1 renal is 53.6 µM; in the experiment with CCRF-CEM leukemia, over 36.2 µM; in the experiment on HCT-116 colon, 15.4 µM; in the experiment with HL-60(TB) leukemia, 25.1 µM; in the experiment on HOP-62 NSCLC, over 58.4 µM; with IGROV1 ovarian, over 74.8 µM. Also, the TGI in the experiment on KM12 colon is 65.6 µM; in the experiment with LOX IMVI melanoma, 21.8 µM; with MDA-MB-231 breast it was over 35.1 µM; in the experiment with MDA-MB-435, over 59.8 µM; in the experiment with MOLT-4 leukemia, 22.1 µM; in the experiment with NCI-H23 lung, 32.6 µM. For the same molecule, the TGI is 11.3 µM in the experiment on NCI-H522 lung; 24.4 µM with OVCAR-3 ovarian; over 83.4 µM with SF-268 CNS; over 100 µM in the experiment with SF-295 CNS; 13.2 µM in the experiment with SF-539 CNS; over 23.2 µM with SK-MEL-2 melanoma. The TGI with SN12C renal was determined as 17.3 µM.

For the molecule `CC12Nc3c(Cl)cc(Cl)cc3N1C(=O)c1ccccc12` (stereo not drawn), the TGI in the experiment with CAKI-1 renal, in the experiment with CCRF-CEM leukemia, in the experiment on HCT-116 colon, in the experiment with HL-60(TB) leukemia, in the experiment with HOP-62 NSCLC and in the experiment on IGROV1 ovarian was over 100 µM throughout. The TGI with KM12 colon, in the experiment with LOX IMVI melanoma, in the experiment with MDA-MB-231 breast, in the experiment on MDA-MB-435, with MOLT-4 leukemia and in the experiment with NCI-H23 lung was over 100 µM each time. Further, the TGI in the experiment on NCI-H522 lung, in the experiment on OVCAR-3 ovarian, with SF-268 CNS, in the experiment with SF-295 CNS, in the experiment on SF-539 CNS and in the experiment on SK-MEL-2 melanoma was over 100 µM throughout. In the experiment on SN12C renal, this molecule displayed a TGI of over 100 µM.

As to `O=C1C2=Cc3ccccc3CCN2c2ccccc21`, the TGI in the experiment with CAKI-1 renal was 30.4 µM; in the experiment with CCRF-CEM leukemia, 26.1 µM; in the experiment with HCT-116 colon it was over 70.4 µM; with HL-60(TB) leukemia it was 72.4 µM; in the experiment on HOP-62 NSCLC it was over 100 µM; with IGROV1 ovarian, over 100 µM. Further, the TGI in the experiment with KM12 colon is over 62 µM; with LOX IMVI melanoma, 38.7 µM; with MDA-MB-231 breast, over 59.4 µM; in the experiment with MDA-MB-435, over 56.3 µM; in the experiment with MOLT-4 leukemia it was 48 µM; with NCI-H23 lung, over 100 µM. The TGI was over 82.7 µM with NCI-H522 lung; over 100 µM in the experiment on OVCAR-3 ovarian; over 74.2 µM in the experiment on SF-268 CNS; 98.3 µM in the experiment with SF-295 CNS; 27.2 µM in the experiment with SF-539 CNS; 67.9 µM in the experiment on SK-MEL-2 melanoma. This molecule also came in with a TGI with SN12C renal of over 31.6 µM.

With `C=CCN1C(=O)/C(=C/c2ccc(Cl)cc2)N=C1SC/C=C/C`, the TGI is over 100 µM with CAKI-1 renal; over 100 µM in the experiment on CCRF-CEM leukemia; over 100 µM in the experiment with HCT-116 colon; 57.5 µM with HL-60(TB) leukemia; over 100 µM in the experiment with HOP-62 NSCLC; over 100 µM in the experiment on IGROV1 ovarian. In addition, the TGI with KM12 colon was over 100 µM; in the experiment with LOX IMVI melanoma, over 100 µM; in the experiment on MDA-MB-231 breast, over 100 µM; in the experiment with MDA-MB-435, over 100 µM; in the experiment on MOLT-4 leukemia, 43.8 µM; in the experiment with NCI-H23 lung it was over 100 µM. Further, the TGI with NCI-H522 lung is over 100 µM; in the experiment with OVCAR-3 ovarian it was over 100 µM; in the experiment on SF-268 CNS, over 100 µM; with SF-295 CNS it was over 100 µM; with SF-539 CNS, over 100 µM; with SK-MEL-2 melanoma it was 68.2 µM. Besides, in the experiment on SN12C renal, the TGI was found to be 71.1 µM.

Consider `NC(=O)NC1NC(=O)NC1=O` (stereo not drawn), for which the TGI in the experiment on CAKI-1 renal, in the experiment with CCRF-CEM leukemia, in the experiment with HCT-116 colon, with HL-60(TB) leukemia, in the experiment with HOP-62 NSCLC and with IGROV1 ovarian was over 100 µM throughout. Moreover, the TGI in the experiment on KM12 colon, in the experiment on LOX IMVI melanoma, in the experiment with MDA-MB-231 breast, in the experiment on MDA-MB-435, in the experiment on MOLT-4 leukemia and in the experiment on NCI-H23 lung was over 100 µM throughout. In addition, the TGI in the experiment on NCI-H522 lung, with OVCAR-3 ovarian, in the experiment with SF-268 CNS, with SF-295 CNS, in the experiment on SF-539 CNS and in the experiment on SK-MEL-2 melanoma was over 100 µM throughout. In the experiment with SN12C renal, this molecule yielded a TGI of over 100 µM.

`CC(C)OC(=O)c1ccc(NCC2=CC(=O)C=CC2=O)cc1`: the TGI in the experiment with CAKI-1 renal is 11.1 µM; in the experiment with CCRF-CEM leukemia, 6.48 µM; with HCT-116 colon, 28.6 µM; in the experiment with HL-60(TB) leukemia it was 5.24 µM; in the experiment on HOP-62 NSCLC, over 100 µM; in the experiment on IGROV1 ovarian it was 26.4 µM. The TGI with KM12 colon came to 41.8 µM; in the experiment on LOX IMVI melanoma it was 26.2 µM; with MDA-MB-231 breast it was 25 µM; in the experiment on MDA-MB-435, 26.4 µM; with MOLT-4 leukemia it was 6.14 µM; with NCI-H23 lung it was 29 µM. For the same molecule, the TGI in the experiment on NCI-H522 lung is 3.27 µM; with OVCAR-3 ovarian it was 21.6 µM; with SF-268 CNS, 26.1 µM; in the experiment with SF-295 CNS, over 83.1 µM; in the experiment with SF-539 CNS it was 22.4 µM; in the experiment on SK-MEL-2 melanoma, 31.5 µM. Also, the TGI in the experiment with SN12C renal amounted to 26.1 µM.
